Experimental data published in PubChem BioAssay AID2060618 (Molecular Pharmacology Branch, DTP, NCI, 2025).

Test system: 454973-116-R2-J3-PDC spheroids, percent test/control viability
Test: Anticancer human tumor 454973-116-R2-J3-PDC patient-derived pancreatic carcinoma cell line growth inhibition [CLK]
Conditions: spheroids with HUVEC and MSC; for IC50: curve of first compound; for viability, T/C: stronger effect = lower value
Method in brief: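 Multi-cell-type spheroids combined patient-derived tumor cells with HUVEC endothelial cells and human mesenchymal stem cells. Paired agents were dosed in half-log steps down from about clinical Cmax, or from 10 microM where Cmax was unknown.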

[1] = second compound 0.0316 µM, first compound 0.0316 µM
[2] = second compound 0.0316 µM, first compound 0.1 µM
[3] = second compound 0.0316 µM, first compound 0.316 µM
[4] = second compound 0.0316 µM, first compound 1 µM
[5] = second compound 0.0316 µM, first compound 3.16 µM
[6] = second compound 0.0316 µM, first compound 10 µM
[7] = second compound 0.1 µM, first compound 0.0316 µM
[8] = second compound 0.1 µM, first compound 0.1 µM
[9] = second compound 0.1 µM, first compound 0.316 µM
[10] = second compound 0.1 µM, first compound 1 µM
[11] = second compound 0.1 µM, first compound 3.16 µM
[12] = second compound 0.1 µM, first compound 10 µM
[13] = second compound 0.316 µM, first compound 0.0316 µM
[14] = second compound 0.316 µM, first compound 0.1 µM
[15] = second compound 0.316 µM, first compound 0.316 µM
[16] = second compound 0.316 µM, first compound 1 µM
[17] = second compound 0.316 µM, first compound 3.16 µM
[18] = second compound 0.316 µM, first compound 10 µM
[19] = second compound 1 µM, first compound 0.0316 µM
[20] = second compound 1 µM, first compound 0.1 µM
[21] = second compound 1 µM, first compound 0.316 µM
[22] = second compound 1 µM, first compound 1 µM
[23] = second compound 1 µM, first compound 3.16 µM
[24] = second compound 1 µM, first compound 10 µM
[25] = second compound 3.16 µM, first compound 0.0316 µM
[26] = second compound 3.16 µM, first compound 0.1 µM
[27] = second compound 3.16 µM, first compound 0.316 µM
[28] = second compound 3.16 µM, first compound 1 µM
[29] = second compound 3.16 µM, first compound 3.16 µM
[30] = second compound 3.16 µM, first compound 10 µM
[31] = second compound 10 µM, first compound 0.0316 µM
[32] = second compound 10 µM, first compound 0.1 µM
[33] = second compound 10 µM, first compound 0.316 µM
[34] = second compound 10 µM, first compound 1 µM
[35] = second compound 10 µM, first compound 3.16 µM
[36] = second compound 10 µM, first compound 10 µM
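Also: spheroids exposed to compounds for 7 days before readout.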

C=CC(=O)N1CCN(c2nc(=O)n(-c3c(C)ccnc3C(C)C)c3nc(-c4c(O)cccc4F)c(F)cc23)C(C)C1 (stereo unspecified) + CNC(=O)c1ccc(Nc2nc(OC3CCCC3)c3c(-c4ccc5nc(C)oc5c4)c[nH]c3n2)c(OC)c1 was tested, and the IC50 (second compound 0.0316 µM) was greater than 10000 nM, the IC50 (second compound 0.1 µM) was greater than 10000 nM and the IC50 (second compound 0.316 µM) was 62.5 nM. The IC50 (second compound 1 µM) was less than 31.6 nM, the IC50 (second compound 3.16 µM) was less than 31.6 nM and the IC50 (second compound 10 µM) was less than 31.6 nM. For the same compound, the viability, T/C [1] was 103%, the viability, T/C [2] was 113% and the viability, T/C [3] was 118%. It also gave a viability, T/C [4] of 124%, a viability, T/C [5] of 122% and a viability, T/C [6] of 115%. For the same compound, the viability, T/C [7] was 107%, the viability, T/C [8] was 113% and the viability, T/C [9] was 101%. It also gave a viability, T/C [10] of 119%, a viability, T/C [11] of 113% and a viability, T/C [12] of 120%. For the same compound, the viability, T/C [13] was 52%, the viability, T/C [14] was 48.1% and the viability, T/C [15] was 48%. It also gave a viability, T/C [16] of 47%, a viability, T/C [17] of 47.5% and a viability, T/C [18] of 45%. For the same compound, the viability, T/C [19] was 28.5%, the viability, T/C [20] was 30.5% and the viability, T/C [21] was 34%. For the same compound, the viability, T/C [22] was 32.6%, the viability, T/C [23] was 37.3% and the viability, T/C [24] was 31.4%. It also gave a viability, T/C [25] of 32.8%, a viability, T/C [26] of 24% and a viability, T/C [27] of 30.9%. The viability, T/C [28] was 30.9%, the viability, T/C [29] was 28.5% and the viability, T/C [30] was 25.4%. The viability, T/C [31] was 25.2%, the viability, T/C [32] was 25.6% and the viability, T/C [33] was 25.6%. It also gave a viability, T/C [34] of 26.1%, a viability, T/C [35] of 30.2% and a viability, T/C [36] of 23.5%.

Compound CCCS(=O)(=O)Nc1ccc(F)c(C(=O)c2c[nH]c3ncc(-c4ccc(Cl)cc4)cc23)c1F + CNC(=O)c1ccc(Nc2nc(OC3CCCC3)c3c(-c4ccc5nc(C)oc5c4)c[nH]c3n2)c(OC)c1 has an IC50 (second compound 0.0316 µM) of 6960 nM, an IC50 (second compound 0.1 µM) of 7250 nM and an IC50 (second compound 0.316 µM) of 31.6 nM. For the same compound, the IC50 (second compound 1 µM) was less than 31.6 nM, the IC50 (second compound 3.16 µM) was less than 31.6 nM and the IC50 (second compound 10 µM) was less than 31.6 nM. For the same compound, the viability, T/C [1] was 96%, the viability, T/C [2] was 107% and the viability, T/C [3] was 102%. For the same compound, the viability, T/C [4] was 126%, the viability, T/C [5] was 107% and the viability, T/C [6] was 23.8%. The viability, T/C [7] was 97.5%, the viability, T/C [8] was 106% and the viability, T/C [9] was 111%. The viability, T/C [10] was 111%, the viability, T/C [11] was 109% and the viability, T/C [12] was 27.9%. For the same compound, the viability, T/C [13] was 48.2%, the viability, T/C [14] was 45.2% and the viability, T/C [15] was 45.5%. It also gave a viability, T/C [16] of 51.2%, a viability, T/C [17] of 53% and a viability, T/C [18] of 14.4%. The viability, T/C [19] was 32.2%, the viability, T/C [20] was 33.6% and the viability, T/C [21] was 33%. For the same compound, the viability, T/C [22] was 37%, the viability, T/C [23] was 32% and the viability, T/C [24] was 12.9%. The viability, T/C [25] was 27.9%, the viability, T/C [26] was 27.3% and the viability, T/C [27] was 31.6%. The viability, T/C [28] was 36.7%, the viability, T/C [29] was 29.7% and the viability, T/C [30] was 10.4%. The viability, T/C [31] was 26.2%, the viability, T/C [32] was 23.9% and the viability, T/C [33] was 25.9%. For the same compound, the viability, T/C [34] was 29.4%, the viability, T/C [35] was 31.9% and the viability, T/C [36] was 9.04%.

In the case of COC1C=CCC(C)C(C)S(=O)(=O)NC(=O)c2ccc3c(c2)N(CC2CCC21)CC1(CCCc2cc(Cl)ccc21)CO3 (stereo unspecified) + CNC(=O)c1ccc(Nc2nc(OC3CCCC3)c3c(-c4ccc5nc(C)oc5c4)c[nH]c3n2)c(OC)c1, the IC50 (second compound 0.0316 µM) is reported as 5340 nM, the IC50 (second compound 0.1 µM) is reported as 4570 nM and the IC50 (second compound 0.316 µM) is reported as less than 31.6 nM. It also gave an IC50 (second compound 1 µM) of less than 31.6 nM, an IC50 (second compound 3.16 µM) of less than 31.6 nM and an IC50 (second compound 10 µM) of less than 31.6 nM. It also gave a viability, T/C [1] of 99.4%, a viability, T/C [2] of 104% and a viability, T/C [3] of 93.9%. It also gave a viability, T/C [4] of 95%, a viability, T/C [5] of 86.8% and a viability, T/C [6] of 6.26%. It also gave a viability, T/C [7] of 91.8%, a viability, T/C [8] of 98.8% and a viability, T/C [9] of 92.4%. The viability, T/C [10] was 84.3%, the viability, T/C [11] was 70.9% and the viability, T/C [12] was 8.61%. It also gave a viability, T/C [13] of 48.2%, a viability, T/C [14] of 53.7% and a viability, T/C [15] of 42%. The viability, T/C [16] was 46.1%, the viability, T/C [17] was 46.3% and the viability, T/C [18] was 11.5%. It also gave a viability, T/C [19] of 30.2%, a viability, T/C [20] of 23.3% and a viability, T/C [21] of 14.2%. It also gave a viability, T/C [22] of 14.4%, a viability, T/C [23] of 17.6% and a viability, T/C [24] of 14.9%. It also gave a viability, T/C [25] of 24.1%, a viability, T/C [26] of 17.4% and a viability, T/C [27] of 11.2%. For the same compound, the viability, T/C [28] was 11.9%, the viability, T/C [29] was 13.9% and the viability, T/C [30] was 11.8%. It also gave a viability, T/C [31] of 23.7%, a viability, T/C [32] of 21.5% and a viability, T/C [33] of 12.1%. For the same compound, the viability, T/C [34] was 9.9%, the viability, T/C [35] was 8.86% and the viability, T/C [36] was 9.25%.
